Here are results for 14 compounds from patent US5723631A, “Coumarin derivatives as retroviral inhibitors” (SmithKline Beecham Corporation, priority 1995, dated 1998).

For data set [1], the target named is T1, HIV reverse transcriptase (Human immunodeficiency virus type 1 group M subtype B, UniProt P03366).
T1 construct: Recombinant HIV reverse transcriptase; made in house
Nature of the data set: HIV reverse transcriptase inhibition (TCA precipitation assay / scintillation proximity assay). Type of data set: biochemical. Here is the method:
5. Reverse Transcriptase Activity
RT inhibition was determined by a TCA precipitation assay as follows:
TCA-precipitation assay for HIV reverse transcriptase.
A heteropolymeric primer template was prepared by hybridizing a 691 nucleotide RNA molecule derived from the gag region of HIV [(+)-GAG^691, prepared as described in Mizrahi, V., Biochemistry, 28:9088-9094 (1989)], to a synthetic oligodeoxynucleotide (sequence: 5'-[…]-3'). The primer template (10 nM) was incubated in reaction buffer (50 mM Tris-HCl, pH 7.8, 80 mM KCl, 6 mM MgCl2, 10 mM DTT, 0.01 mg/ml BSA) with inhibitor, 10 μM dGTP, 10 μM dATP, and 28 μCi/ml of [3H]TYP (Amersham). Recombinant HIV reverse transcriptase (prepared as described in Mizrahi, et al., Arch. Biochem. Biophys., 273: 347-358, (1989)) was added to a concentration of 2-8 nM, and the reaction was incubated for 15 min at 37° C. (total reaction volume, 50 μL). The reaction was terminated with 50 μL of 20% TCA in 100 mM sodium pyrophosphate (ice cold) and chilled on ice for 15-30 min. The reaction mixture was filtered through glass fiber filters using a cell harvester, and the radioactivity that adhered to the filter was quantified using an LKB betaplate counter.
Scintillation proximity assay for HIV reverse tanscriptase.
HIV reverse transcriptase SPA enzyme assay system kits were obtained from Amersham (item number NK8972) and used as described in the package insert. Briefly, 10 μL of primer-template as supplied in the kit was added to 70 μL of dNTP/[3H]TTP solution. Ten μL of the inhibitor to be tested was added, followed by recombinant HIV RT (prepared as above) to a concentration of 2 nM. The reaction mixture was incubated for 10 min at room temperature and then terminated with 40 μL of 0.5M EDTA. Ten μL of streptavidin-SPA beads were added to each tube and the incorporated radioactivity was measured in an LKB betaplate counter.

For the next data set, the system named is HIV-1 (IIIB Stock). Put plainly: HIV-1 infectivity inhibition assay (Molt4 cells). Type of data set: cell-based. Conditions: for pIC50: read-out: IC50 (50% Inhibitory concentration for cytopathicity by HIV); for Selective Index (Cytotoxycity/IC50 ratio): cytotoxicity/IC50 ratio, 10080 min. Here is the method: 6. HIV-1 Infectivity Inhibition Assay
In addition, the compounds of the present invention were assayed via a virus neutralization, or HIV infectivity assay as follows:
Bulk Infection of Molt4 Cells.
Bulk infection is used to overcome variations inherent in individual well infections. Sufficient cells and diluted virus stock for an experiment are mixed together in a T-75 flask (Corning) so that the following ratio per well of virus and cells is maintained: 100 μl containing 45 TCID50 of virus (IIIB Stock) mixed with 100 μl of Molt4 cells (3×10^4 cells/well or 3×10^5 /ml). Virus is allowed to adsorb for 90 min. at 37° C. in CO2 incubator. […] of cell/virus mixture is then aliquoted into individual wells of a 24-well plate.
Appropriate 1/200 volumes of inhibitor dilutions at 200X final concentrations in 100% DMSO are added [i.e., to the 497.5 μl of virus infected cells, 2.5 μl of inhibitor dilution of 100% DMSO or 100% DMSO alone (for virus controls) is carefully added to appropriate wells]. Dilution series are generally 5-fold dilutions starting from 50 μg/ml.
Cultures are fed with RPMI 1640+20% FBS containing 1× concentration of inhibitor series (i.e., starting concentrations present at beginning of experiment) at the following times and volumes:
(Final volume in each well=1.5 ml)
Culture supernatants are harvested at 7 days post infection. Generally 90 μl of culture medium is transferred into a 96-well culture plate containing 10 μl 5% Triton X-100 in PBS. The plate is sealed, wiped with gauze saturated with 70% ethanol+detergent and stored at -80° C. until Micro RTs or p24 ELISAs are done. The results of HIV infectivity,inhibition is presented below:
^2 50% Inhibitory concentration for cytopathicity by HIV

Data set [2] addresses T2, HIV RT in which amino acid #181 was changed from tyrosine to isoleucine (Human immunodeficiency virus type 1 BH10, UniProt P03366, Y780I).
T2 construct: wild type recombinant per Mizrahi 1989
Put plainly: Inhibition of TIBO-resistant mutant HIV RT, amino acid #181 tyrosine to isoleucine. The conditions noted are these: Tyr181 to isoleucine mutant. Type of data set: biochemical.

The nature of data set [3]: Cellular cytotoxicity in Molt4 cells. Conditions: human, Measured via XTT. It counts as cell-based. The procedure: Cytotoxicity was tested with the CD4+cell line, Molt4. The compounds of the present invention were dissolved in DMSO in order to maximize solubility and provide a common solvent system. […] Cytotoxicity was measured as the inhibition of ^3 H-thymidine incorporation into the host cell's genome after exposure to the compounds of the present invention.

Data set [4] concerns the target T3, HIV RT in which amino acid #181 was changed from tyrosine to cysteine (Human immunodeficiency virus type 1 BH10, UniProt P03366, Y780C).
T3 construct: wild type recombinant per Mizrahi 1989
Nature of the data set: Inhibition of TIBO-resistant mutant HIV RT, amino acid #181 tyrosine to cysteine. Conditions: Tyr181 to cysteine mutant. Type of data set: biochemical.

Data set [5] concerns human immunodeficiency virus-1 reverse transcriptase (HIV-1 RT). Conditions: literature, Kashman et al. 1992; cited from earlier work.
Setting [6] is: Compounds 22 and 23, Example 7, read-out: Reverse Transcriptase Activity: IC50.
Setting [7] is: recombinant HIV RT, RT inhibition results table of Example 5, read-out: IC50.
Where [8] appears, read: Human immunodeficiency virus 1, IIIB, MOLT-4, 168 h.

pIC50: −log10 of the molar value. Like-named read-outs stand apart in the source and are kept apart here. A value given as a limit tells only on which side of the number the result lay.

As for `CCCc1cc(=O)oc2c3c(c4c(c12)OC(C)(C)C=C4)O[C@@H](C)C[C@H]3O` (relative stereo) [Compound 23], the pIC50 in data set [1] (setting [6]) is 6.22.

For the compound `C[C@@H]1[C@@H](C)Oc2c3c(c4c(-c5ccccc5)cc(=O)oc4c2[C@@H]1O)OC(C)(C)C=C3` [Inophyllum P], the “activity in the RT-ase assay (in words)” value in data set [1] is recorded as “sub-micromolar activity”. For the same compound, the values for the pIC50 (in data set [1] (setting [7]); in the data set with HIV-1 (IIIB Stock) (setting [8])) were 6.22 and 5.80, respectively. Further, the “Selective Index (Cytotoxycity/IC50 ratio)” value with HIV-1 (IIIB Stock) came to 16. The “inhibition of mutant HIV RT relative to wild-type (in words)” value in data set [2] and in data set [4] was “potency comparable to that observed with wild-type HIV RT” in each case. The compound further gave a CC50 in data set [3] of 25 µM.

With `C[C@H]1[C@H](O)c2c(c3c(c4c(-c5ccccc5)cc(=O)oc24)OC(C)(C)C=C3)O[C@@H]1C` [Inophyllum B], the “activity in the RT-ase assay (in words)” value in data set [1] is on record as “sub-micromolar activity”. Besides, the results for the pIC50 (in data set [1] (setting [7]); in the data set with HIV-1 (IIIB Stock) (setting [8])) were 6.52 and 5.85, respectively. The “Selective Index (Cytotoxycity/IC50 ratio)” value with HIV-1 (IIIB Stock) worked out at 39. Moreover, the “inhibition of mutant HIV RT relative to wild-type (in words)” value in data set [2] and in data set [4] was “potency comparable to that observed with wild-type HIV RT” in each case. This compound registered a CC50 in data set [3] of 55 µM.

Turning to `C[C@@H]1[C@H](O)c2c(c3c(c4c(-c5ccccc5)cc(=O)oc24)OC(C)(C)C=C3)O[C@@H]1C` [Inophyllum A], the pIC50 in data set [1] (setting [7]) is 5.05. Moreover, the CC50 in data set [3] was determined as 33 µM.

In the case of `C/C=C(\C)C(=O)c1c(OC)c2c(c3c(-c4ccccc4)cc(=O)oc13)OC(C)(C)C=C2` [Calophyllolide], in data set [1] (setting [7]), the pIC50 was under 4.30. Further, the midpoint of cytotoxicity in data set [3], the CC50, lay at 4.5 µM.

With “tetrahydro-imidazo[4,5,1-jk][1,4]-benzodiazepin-2-(1H)-one and -thione [TIBO, reference compound]”, the pIC50 with HIV-1 (IIIB Stock) (Molt4 cells, harvest 7 days post infection) is 6.72. Also, the “Selective Index (Cytotoxycity/IC50 ratio)” value in the data set on HIV-1 (IIIB Stock) is given as 100.

With `CCCc1cc(=O)oc2c3c(c4c(c12)OC(C)(C)C=C4)O[C@H](C)[C@@H](C)[C@@H]3O` [Calanolide A], in data set [5], the “inhibition of HIV-1 RT (in words)” value is on record as “potent inhibitor”.

Take `C[C@@H]1[C@H](O)c2c(c3c(c4c(-c5ccccc5)cc(=O)oc24)O[C@H]2[C@@H]3C2(C)C)O[C@@H]1C` [Inophyllum G2]: the pIC50 in data set [1] (setting [7]) was under 4.30.

For `C[C@H]1Oc2c3c(c4c(-c5ccccc5)cc(=O)oc4c2C(=O)[C@@H]1C)OC(C)(C)C=C3` [Inophyllum C], in data set [1] (setting [7]), the pIC50 was under 4.30. The compound further gave a CC50 in data set [3] of 18 µM.

`CCCc1cc(=O)oc2c3c(c4c(c12)OC(C)(C)C=C4)O[C@@H](C)C[C@@H]3O` (relative stereo) [Compound 22]: the pIC50 in data set [1] (setting [6]) was 5.75.

Consider `C[C@@H]1C(=O)c2c(c3c(c4c(-c5ccccc5)cc(=O)oc24)OC(C)(C)C=C3)O[C@@H]1C` [Inophyllum E], for which, in data set [1] (setting [7]), the pIC50 was under 4.30. In data set [3], the CC50 is 6.2 µM.

In the case of `C[C@H]1[C@@H](C)Oc2c3c(c4c(-c5ccccc5)cc(=O)oc4c2[C@@H]1O)OC(C)(C)C=C3` [Inophyllum D], the pIC50 in data set [1] (setting [7]) is 4.52. This compound gave a CC50 in data set [3] of 15 µM.

Consider `C[C@@H]1[C@H](O)c2c(c3c(c4c(-c5ccccc5)cc(=O)oc24)O[C@@H]2[C@H]3C2(C)C)O[C@@H]1C` [Inophyllum G1], for which the pIC50 in data set [1] (setting [7]) was under 4.30.

With `CCCc1cc(=O)oc2c3c(c4c(c12)OC(C)(C)C=C4)O[C@H](C)[C@@H](C)[C@@H]3O` (relative stereo) [(±)-20, (±)-Calanolide A], the “HIV-1 RT-inhibitory potency compared with natural calanolide A (in words)” value in data set [1] (synthetic racemate vs data reported for natural calanolide A) is “in full agreement with the data reported for natural calanolide A”.
